{"source": "paper PMC9668969", "about": "(Nature Communications, 2022)", "molecular_target": "T1, W206F ELIC (Dickeya chrysanthemi, UniProt P0C7B7, W205F)", "T1 construct": "host or cells: OverExpress C43 (DE3) E. coli", "T1 sequence (P0C7B7 whole entry W205F)": "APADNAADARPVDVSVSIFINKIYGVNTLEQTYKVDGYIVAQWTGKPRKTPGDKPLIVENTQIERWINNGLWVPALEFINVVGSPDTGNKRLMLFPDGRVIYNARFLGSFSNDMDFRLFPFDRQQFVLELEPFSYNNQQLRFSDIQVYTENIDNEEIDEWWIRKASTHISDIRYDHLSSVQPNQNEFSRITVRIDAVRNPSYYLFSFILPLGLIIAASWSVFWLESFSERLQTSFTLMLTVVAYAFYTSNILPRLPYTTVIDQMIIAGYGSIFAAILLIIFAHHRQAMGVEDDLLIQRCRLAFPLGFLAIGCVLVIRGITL", "test": "Tryptophan fluorescence emission spectrum with and without agonist", "format": "biochemical, Erwinia chrysanthemi", "conditions": "W206F 30 mM Cys", "experimental": "To measure the tryptophan (Trp) fluorescence emission of ELIC, WT or W206F ELIC was diluted to 3 ml (0.02 mg/ml) and an emission spectrum was collected in a quartz fluorescence cell using a Fluoromax Plus Spectrofluorometer (Horiba Scientific). […] Trp fluorescence measurements with rapid mixing of agonist was carried out using the SX20 stopped-flow spectrofluorometer, outfitted with a 295 nm LED excitation source. Purified ELIC was diluted to 0.1 mg/ml in Trp Stopped-flow Buffer A (10 mM Tris pH 7.5, 100 mM NaCl, 0.05% DDM). A single mixing experiment was performed by mixing ELIC with equal volumes of Buffer A + propylamine. Propylamine was prepared at varying concentrations at 2x the final concentration. The instrument dead time was ~1 ms, enabling capture of most of the time course of change in Trp fluorescence. The time course of decrease in Trp fluorescence after rapid mixing with propylamine was fit to a single exponential to obtain a time constant for the rate of decrease and a measure of the extent of decrease. All replicates were taken from distinct samples."}
{"smiles": "NCCS", "note": "[cysteamine]", "values": [{"measurement": "Tryptophan fluorescence emission intensity", "setting": "wavelength 320", "value": 771490}, {"measurement": "Tryptophan fluorescence emission intensity", "setting": "wavelength 321", "value": 795430}, {"measurement": "Tryptophan fluorescence emission intensity", "setting": "wavelength 322", "value": 813680}, {"measurement": "Tryptophan fluorescence emission intensity", "setting": "wavelength 323", "value": 843300}, {"measurement": "Tryptophan fluorescence emission intensity", "setting": "wavelength 324", "value": 855410}, {"measurement": "Tryptophan fluorescence emission intensity", "setting": "wavelength 325", "value": 890410}, {"measurement": "Tryptophan fluorescence emission intensity", "setting": "wavelength 327", "value": 921570}, {"measurement": "Tryptophan fluorescence emission intensity", "setting": "wavelength 328", "value": 945690}, {"measurement": "Tryptophan fluorescence emission intensity", "setting": "wavelength 329", "value": 972730}, {"measurement": "Tryptophan fluorescence emission intensity", "setting": "wavelength 330", "value": 989960}, {"measurement": "Tryptophan fluorescence emission intensity", "setting": "wavelength 331", "value": 1002600}, {"measurement": "Tryptophan fluorescence emission intensity", "setting": "wavelength 332", "value": 1020470}, {"measurement": "Tryptophan fluorescence emission intensity", "setting": "wavelength 333", "value": 1032760}, {"measurement": "Tryptophan fluorescence emission intensity", "setting": "wavelength 334", "value": 1043250}, {"measurement": "Tryptophan fluorescence emission intensity", "setting": "wavelength 335", "value": 1051410}, {"measurement": "Tryptophan fluorescence emission intensity", "setting": "wavelength 336", "value": 1059950}, {"measurement": "Tryptophan fluorescence emission intensity", "setting": "wavelength 337", "value": 1062210}, {"measurement": "Tryptophan fluorescence emission intensity", "setting": "wavelength 338", "value": 1071660}, {"measurement": "Tryptophan fluorescence emission intensity", "setting": "wavelength 339", "value": 1076280}, {"measurement": "Tryptophan fluorescence emission intensity", "setting": "wavelength 340", "value": 1083710}, {"measurement": "Tryptophan fluorescence emission intensity", "setting": "wavelength 341", "value": 1085920}, {"measurement": "Tryptophan fluorescence emission intensity", "setting": "wavelength 342", "value": 1080500}, {"measurement": "Tryptophan fluorescence emission intensity", "setting": "wavelength 343", "value": 1081010}, {"measurement": "Tryptophan fluorescence emission intensity", "setting": "wavelength 344", "value": 1074670}, {"measurement": "Tryptophan fluorescence emission intensity", "setting": "wavelength 345", "value": 1071140}, {"measurement": "Tryptophan fluorescence emission intensity", "setting": "wavelength 346", "value": 1066530}, {"measurement": "Tryptophan fluorescence emission intensity", "setting": "wavelength 347", "value": 1060720}, {"measurement": "Tryptophan fluorescence emission intensity", "setting": "wavelength 348", "value": 1058590}, {"measurement": "Tryptophan fluorescence emission intensity", "setting": "wavelength 349", "value": 1045760}, {"measurement": "Tryptophan fluorescence emission intensity", "setting": "wavelength 350", "value": 1042330}, {"measurement": "Tryptophan fluorescence emission intensity", "setting": "wavelength 351", "value": 1034700}, {"measurement": "Tryptophan fluorescence emission intensity", "setting": "wavelength 352", "value": 1019030}, {"measurement": "Tryptophan fluorescence emission intensity", "setting": "wavelength 353", "value": 1010620}, {"measurement": "Tryptophan fluorescence emission intensity", "setting": "wavelength 354", "value": 993340}, {"measurement": "Tryptophan fluorescence emission intensity", "setting": "wavelength 355", "value": 980850}, {"measurement": "Tryptophan fluorescence emission intensity", "setting": "wavelength 356", "value": 973320}, {"measurement": "Tryptophan fluorescence emission intensity", "setting": "wavelength 357", "value": 961650}, {"measurement": "Tryptophan fluorescence emission intensity", "setting": "wavelength 358", "value": 938960}, {"measurement": "Tryptophan fluorescence emission intensity", "setting": "wavelength 359", "value": 924340}, {"measurement": "Tryptophan fluorescence emission intensity", "setting": "wavelength 360", "value": 898600}, {"measurement": "Tryptophan fluorescence emission intensity", "setting": "wavelength 361", "value": 886010}, {"measurement": "Tryptophan fluorescence emission intensity", "setting": "wavelength 362", "value": 867380}, {"measurement": "Tryptophan fluorescence emission intensity", "setting": "wavelength 363", "value": 844340}, {"measurement": "Tryptophan fluorescence emission intensity", "setting": "wavelength 364", "value": 830030}, {"measurement": "Tryptophan fluorescence emission intensity", "setting": "wavelength 365", "value": 813040}, {"measurement": "Tryptophan fluorescence emission intensity", "setting": "wavelength 366", "value": 786750}, {"measurement": "Tryptophan fluorescence emission intensity", "setting": "wavelength 367", "value": 769070}, {"measurement": "Tryptophan fluorescence emission intensity", "setting": "wavelength 368", "value": 749540}, {"measurement": "Tryptophan fluorescence emission intensity", "setting": "wavelength 369", "value": 729430}, {"measurement": "Tryptophan fluorescence emission intensity", "setting": "wavelength 370", "value": 711180}, {"measurement": "Tryptophan fluorescence emission intensity", "setting": "wavelength 371", "value": 692310}, {"measurement": "Tryptophan fluorescence emission intensity", "setting": "wavelength 372", "value": 672500}, {"measurement": "Tryptophan fluorescence emission intensity", "setting": "wavelength 373", "value": 652280}, {"measurement": "Tryptophan fluorescence emission intensity", "setting": "wavelength 374", "value": 629710}, {"measurement": "Tryptophan fluorescence emission intensity", "setting": "wavelength 375", "value": 618580}, {"measurement": "Tryptophan fluorescence emission intensity", "setting": "wavelength 376", "value": 599350}, {"measurement": "Tryptophan fluorescence emission intensity", "setting": "wavelength 377", "value": 580660}, {"measurement": "Tryptophan fluorescence emission intensity", "setting": "wavelength 378", "value": 563670}, {"measurement": "Tryptophan fluorescence emission intensity", "setting": "wavelength 379", "value": 543190}, {"measurement": "Tryptophan fluorescence emission intensity", "setting": "wavelength 380", "value": 522740}, {"measurement": "Tryptophan fluorescence emission intensity", "setting": "wavelength 381", "value": 502820}, {"measurement": "Tryptophan fluorescence emission intensity", "setting": "wavelength 382", "value": 487000}, {"measurement": "Tryptophan fluorescence emission intensity", "setting": "wavelength 383", "value": 475140}, {"measurement": "Tryptophan fluorescence emission intensity", "setting": "wavelength 384", "value": 456600}, {"measurement": "Tryptophan fluorescence emission intensity", "setting": "wavelength 385", "value": 440790}, {"measurement": "Tryptophan fluorescence emission intensity", "setting": "wavelength 386", "value": 423940}, {"measurement": "Tryptophan fluorescence emission intensity", "setting": "wavelength 387", "value": 405220}, {"measurement": "Tryptophan fluorescence emission intensity", "setting": "wavelength 388", "value": 397190}, {"measurement": "Tryptophan fluorescence emission intensity", "setting": "wavelength 389", "value": 381080}, {"measurement": "Tryptophan fluorescence emission intensity", "setting": "wavelength 390", "value": 363380}, {"measurement": "Tryptophan fluorescence emission intensity", "setting": "wavelength 391", "value": 352540}, {"measurement": "Tryptophan fluorescence emission intensity", "setting": "wavelength 392", "value": 336000}, {"measurement": "Tryptophan fluorescence emission intensity", "setting": "wavelength 393", "value": 325360}, {"measurement": "Tryptophan fluorescence emission intensity", "setting": "wavelength 394", "value": 311620}, {"measurement": "Tryptophan fluorescence emission intensity", "setting": "wavelength 395", "value": 300840}, {"measurement": "Tryptophan fluorescence emission intensity", "setting": "wavelength 396", "value": 285190}, {"measurement": "Tryptophan fluorescence emission intensity", "setting": "wavelength 397", "value": 272180}, {"measurement": "Tryptophan fluorescence emission intensity", "setting": "wavelength 398", "value": 260830}, {"measurement": "Tryptophan fluorescence emission intensity", "setting": "wavelength 399", "value": 250140}, {"measurement": "Tryptophan fluorescence emission intensity", "setting": "wavelength 400", "value": 241040}, {"measurement": "Tryptophan fluorescence emission intensity", "setting": "wavelength 401", "value": 226290}, {"measurement": "Tryptophan fluorescence emission intensity", "setting": "wavelength 402", "value": 221660}, {"measurement": "Tryptophan fluorescence emission intensity", "setting": "wavelength 403", "value": 211970}, {"measurement": "Tryptophan fluorescence emission intensity", "setting": "wavelength 404", "value": 203540}, {"measurement": "Tryptophan fluorescence emission intensity", "setting": "wavelength 405", "value": 194410}, {"measurement": "Tryptophan fluorescence emission intensity", "setting": "wavelength 406", "value": 184680}, {"measurement": "Tryptophan fluorescence emission intensity", "setting": "wavelength 407", "value": 177100}, {"measurement": "Tryptophan fluorescence emission intensity", "setting": "wavelength 408", "value": 169410}, {"measurement": "Tryptophan fluorescence emission intensity", "setting": "wavelength 409", "value": 164650}, {"measurement": "Tryptophan fluorescence emission intensity", "setting": "wavelength 410", "value": 155310}, {"measurement": "Tryptophan fluorescence emission intensity", "setting": "wavelength 411", "value": 149680}, {"measurement": "Tryptophan fluorescence emission intensity", "setting": "wavelength 412", "value": 144200}, {"measurement": "Tryptophan fluorescence emission intensity", "setting": "wavelength 413", "value": 137560}, {"measurement": "Tryptophan fluorescence emission intensity", "setting": "wavelength 414", "value": 131490}, {"measurement": "Tryptophan fluorescence emission intensity", "setting": "wavelength 415", "value": 127250}, {"measurement": "Tryptophan fluorescence emission intensity", "setting": "wavelength 416", "value": 120610}, {"measurement": "Tryptophan fluorescence emission intensity", "setting": "wavelength 417", "value": 116040}, {"measurement": "Tryptophan fluorescence emission intensity", "setting": "wavelength 418", "value": 113630}, {"measurement": "Tryptophan fluorescence emission intensity", "setting": "wavelength 419", "value": 109000}, {"measurement": "Tryptophan fluorescence emission intensity", "setting": "wavelength 420", "value": 104760}]}
